ChEMBL document CHEMBL4229455, “Synthesis and anticancer activity of novel bisindolylhydroxymaleimide derivatives with potent GSK-3 kinase inhibition” (Bioorg Med Chem, 2018)

Tests used:
Format in all cases: functional
HCC 2998 [1] = assay: Cytotoxicity against human HCC2998 cells assessed as cell growth at 100 uM after 48 hrs by SRB assay relative to control; conditions: HCC 2998, 48 h, read-out: Activity
SF-268 = assay: Cytotoxicity against human SF268 cells after 48 hrs by SRB assay; conditions: SF-268, 48 h; for CC50: read-out: LC50 (the source's name)
BT-549 = assay: Cytotoxicity against human BT549 cells after 48 hrs by SRB assay; conditions: BT-549, 48 h
SK-MEL-2 = assay: Cytotoxicity against human SK-MEL-2 cells assessed as cell growth at 0.1 uM after 48 hrs by SRB assay relative to control; conditions: SK-MEL-2, 48 h, read-out: Activity
Hs-578T = assay: Cytotoxicity against human Hs 578T cells assessed as cell growth at 0.1 uM after 48 hrs by SRB assay relative to control; conditions: read-out: Activity
ACHN [2] = assay: Cytotoxicity against human ACHN cells assessed as cell growth at 1 uM after 48 hrs by SRB assay relative to control; conditions: read-out: Activity
K562 = assay: Cytotoxicity against human K562 cells after 48 hrs by SRB assay; conditions: K562, 48 h
HCT-15 = assay: Cytotoxicity against human HCT15 cells after 48 hrs by SRB assay; conditions: HCT-15, 48 h
SK-MEL-28 = assay: Cytotoxicity against human SK-MEL-28 cells after 48 hrs by SRB assay; conditions: SK-MEL-28, 48 h
Malme-3M = assay: Cytotoxicity against human MALME-3M cells assessed as cell growth at 1 uM after 48 hrs by SRB assay relative to control; conditions: read-out: Activity
HOP-62 = assay: Cytotoxicity against human HOP62 cells assessed as cell growth at 100 uM after 48 hrs by SRB assay relative to control; conditions: HOP-62, 48 h, read-out: Activity
UACC-257 [3] = assay: Cytotoxicity against human UACC257 cells assessed as cell growth at 1 uM after 48 hrs by SRB assay relative to control; conditions: UACC-257, 48 h, read-out: Activity
PC-3 = assay: Cytotoxicity against human PC3 cells assessed as cell growth at 100 uM after 48 hrs by SRB assay relative to control; conditions: PC-3, 48 h, read-out: Activity
UACC-62 = assay: Cytotoxicity against human UACC62 cells assessed as cell growth at 1 uM after 48 hrs by SRB assay relative to control; conditions: UACC-62, 48 h, read-out: Activity
UACC-257 [4] = assay: Cytotoxicity against human UACC257 cells assessed as cell growth at 100 uM after 48 hrs by SRB assay relative to control; conditions: UACC-257, 48 h, read-out: Activity
OVCAR-3 = assay: Cytotoxicity against human OVCAR3 cells after 48 hrs by SRB assay; conditions: OVCAR-3, 48 h
CCRF-CEM = assay: Cytotoxicity against human CCRF-CEM cells assessed as cell growth at 0.1 uM after 48 hrs by SRB assay relative to control; conditions: read-out: Activity
A549 = assay: Cytotoxicity against human A549 cells after 48 hrs by SRB assay; conditions: A549, 48 h; for CC50: read-out: LC50 (the source's name)
HCT-116 = assay: Cytotoxicity against human HCT116 cells assessed as cell growth at 100 uM after 48 hrs by SRB assay relative to control; conditions: HCT-116, 48 h, read-out: Activity
OVCAR-8 = assay: Cytotoxicity against human OVCAR8 cells assessed as cell growth at 100 uM after 48 hrs by SRB assay relative to control; conditions: OVCAR-8, 48 h, read-out: Activity
MDA-MB-468 [5] = assay: Cytotoxicity against human MDA-MB-468 cells after 48 hrs by SRB assay; conditions: MDA-MB-468, 48 h
KM12 = assay: Cytotoxicity against human KM12 cells assessed as cell growth at 100 uM after 48 hrs by SRB assay relative to control; conditions: KM12, 48 h, read-out: Activity
SR = assay: Cytotoxicity against human SR cells assessed as cell growth at 1 uM after 48 hrs by SRB assay relative to control; conditions: read-out: Activity
HL-60(TB) = assay: Cytotoxicity against human HL-60(TB) cells after 48 hrs by SRB assay; conditions: HL-60, 48 h
NCI-H226 = assay: Cytotoxicity against human NCI-H226 cells after 48 hrs by SRB assay; conditions: NCI-H226, 48 h
MDA-MB-468 [6] = assay: Cytotoxicity against human MDA-MB-468 cells assessed as cell growth at 0.1 uM after 48 hrs by SRB assay relative to control; conditions: MDA-MB-468, 48 h, read-out: Activity
SW-620 = assay: Cytotoxicity against human SW620 cells assessed as cell growth at 100 uM after 48 hrs by SRB assay relative to control; conditions: SW-620, 48 h, read-out: Activity
SNB-75 = assay: Cytotoxicity against human SNB75 cells after 48 hrs by SRB assay; conditions: SNB-75, 48 h; for CC50: read-out: LC50 (the source's name)
RXF 393 = assay: Cytotoxicity against human RXF393 cells assessed as cell growth at 1 uM after 48 hrs by SRB assay relative to control; conditions: RXF 393, 48 h, read-out: Activity
SK-OV-3 = assay: Cytotoxicity against human SKOV3 cells assessed as cell growth at 0.01 uM after 48 hrs by SRB assay relative to control; conditions: SK-OV-3, 48 h, read-out: Activity
A498 = assay: Cytotoxicity against human A498 cells assessed as cell growth at 0.01 uM after 48 hrs by SRB assay relative to control; conditions: A498, 48 h, read-out: Activity
HCC 2998 [7] = assay: Cytotoxicity against human HCC2998 cells assessed as cell growth at 1 uM after 48 hrs by SRB assay relative to control; conditions: HCC 2998, 48 h, read-out: Activity
LOX IMVI = assay: Cytotoxicity against human LOXIMVI cells assessed as cell growth at 0.1 uM after 48 hrs by SRB assay relative to control; conditions: read-out: Activity
SN12C = assay: Cytotoxicity against human SN12C cells assessed as cell growth at 0.1 uM after 48 hrs by SRB assay relative to control; conditions: read-out: Activity
ACHN [8] = assay: Cytotoxicity against human ACHN cells after 48 hrs by SRB assay; conditions: for CC50: read-out: LC50 (the source's name)
NCI-H23 = assay: Cytotoxicity against human NCI-H23 cells assessed as cell growth at 1 uM after 48 hrs by SRB assay relative to control; conditions: NCI-H23, 48 h, read-out: Activity

Cn1cc(C2=C(c3cn(C)c4ncccc34)C(=O)NC2=O)c2ccccc21
growth at 100 µM (HCC 2998 [1]): -37% | GI50 (SF-268): 4.86 µM | TGI (SF-268): 48.4 µM | CC50 (SF-268): > 100 µM | GI50 (BT-549): 2.36 µM | TGI (BT-549): 8.09 µM | growth at 0.1 µM (SK-MEL-2): 113% | growth at 0.1 µM (Hs-578T): 81% | growth at 1 µM (ACHN [2]): 87% | GI50 (K562): 2.74 µM | TGI (K562): > 100 µM | GI50 (HCT-15): 3.49 µM | TGI (HCT-15): 60.5 µM | GI50 (SK-MEL-28): 3.05 µM | TGI (SK-MEL-28): 17.7 µM | growth at 1 µM (Malme-3M): 110% | growth at 100 µM (HOP-62): -17% | growth at 1 µM (UACC-257 [3]): 112% | growth at 100 µM (PC-3): -9% | growth at 1 µM (UACC-62): 89% | growth at 100 µM (UACC-257 [4]): -12% | GI50 (OVCAR-3): 4.49 µM | TGI (OVCAR-3): 36.8 µM | growth at 0.1 µM (CCRF-CEM): 81% | GI50 (A549): 3.49 µM | TGI (A549): 33.2 µM | CC50 (A549): > 100 µM | growth at 100 µM (HCT-116): -17% | growth at 100 µM (OVCAR-8): -15% | GI50 (MDA-MB-468 [5]): 2.22 µM | TGI (MDA-MB-468 [5]): 9.46 µM | growth at 100 µM (KM12): -86% | growth at 1 µM (SR): 51% | GI50 (HL-60(TB)): 4.05 µM | TGI (HL-60(TB)): 17.9 µM | GI50 (NCI-H226): 2.24 µM | TGI (NCI-H226): 6.84 µM | growth at 0.1 µM (MDA-MB-468 [6]): 96% | growth at 100 µM (SW-620): -19% | GI50 (SNB-75): 0.291 µM | TGI (SNB-75): 7.97 µM | CC50 (SNB-75): 94.6 µM | growth at 1 µM (RXF 393): 83% | growth at 0.01 µM (SK-OV-3): 104% | growth at 0.01 µM (A498): 76% | growth at 1 µM (HCC 2998 [7]): 85% | growth at 0.1 µM (LOX IMVI): 92% | growth at 0.1 µM (SN12C): 87% | GI50 (ACHN [8]): 2.93 µM | TGI (ACHN [8]): 26.2 µM | CC50 (ACHN [8]): > 100 µM | growth at 1 µM (NCI-H23): 84%

N#CCCCCCn1cc(C2=C(c3cn(CCCCCC#N)c4ccccc34)C(=O)N(O)C2=O)c2ccccc21
growth at 100 µM (HCC 2998 [1]): 1% | GI50 (SF-268): 10.1 µM | TGI (SF-268): > 100 µM | CC50 (SF-268): > 100 µM | GI50 (BT-549): 3.44 µM | LC50 (BT-549): > 100 µM | TGI (BT-549): 24.5 µM | growth at 0.1 µM (SK-MEL-2): 98% | growth at 0.1 µM (Hs-578T): 91% | growth at 1 µM (ACHN [2]): 88% | GI50 (K562): 3.59 µM | LC50 (concentration killing 50% of cells) (K562): > 100 µM | TGI (K562): > 100 µM | GI50 (HCT-15): 3.88 µM | LC50 (HCT-15): > 100 µM | TGI (HCT-15): > 100 µM | GI50 (SK-MEL-28): 6.07 µM | LC50 (SK-MEL-28): > 100 µM | TGI (SK-MEL-28): > 100 µM | growth at 1 µM (Malme-3M): 107% | growth at 100 µM (HOP-62): 4% | growth at 1 µM (UACC-257 [3]): 97% | growth at 100 µM (PC-3): -4% | growth at 1 µM (UACC-62): 87% | growth at 100 µM (UACC-257 [4]): -19% | GI50 (OVCAR-3): 3.81 µM | LC50 (OVCAR-3): > 100 µM | TGI (OVCAR-3): 19 µM | growth at 0.1 µM (CCRF-CEM): 85% | GI50 (A549): 10.4 µM | TGI (A549): > 100 µM | CC50 (A549): > 100 µM | growth at 100 µM (HCT-116): -15% | growth at 100 µM (OVCAR-8): 3% | GI50 (MDA-MB-468 [5]): 3.47 µM | LC50 (MDA-MB-468 [5]): > 100 µM | TGI (MDA-MB-468 [5]): 13.9 µM | growth at 100 µM (KM12): -23% | growth at 1 µM (SR): 114% | GI50 (HL-60(TB)): 2.54 µM | LC50 (HL-60(TB)): > 100 µM | TGI (HL-60(TB)): 6.44 µM | GI50 (NCI-H226): 7.26 µM | LC50 (NCI-H226): > 100 µM | TGI (NCI-H226): 70.8 µM | growth at 0.1 µM (MDA-MB-468 [6]): 105% | growth at 100 µM (SW-620): 7% | GI50 (SNB-75): 2.84 µM | TGI (SNB-75): 20 µM | CC50 (SNB-75): > 100 µM | growth at 1 µM (RXF 393): 98% | growth at 0.01 µM (SK-OV-3): 98% | growth at 0.01 µM (A498): 84% | growth at 1 µM (HCC 2998 [7]): 108% | growth at 0.1 µM (LOX IMVI): 90% | growth at 0.1 µM (SN12C): 94% | GI50 (ACHN [8]): 8.04 µM | TGI (ACHN [8]): > 100 µM | CC50 (ACHN [8]): > 100 µM | growth at 1 µM (NCI-H23): 94%
